Reference: PubChem BioAssay AID743392 (Broad Institute, 2014)
Calls of active or inactive are those of the source.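 How the source made its calls: active means phosphorylated Mpk1, a fungal stress kinase, cut by at least 20% below its untreated level on western blot; inactive means the rest.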

Tested on: Mitogen-activated protein kinase MPK1 phosphorylation (Cryptococcus neoformans H99)
Assay: inhibition of Mpk1 phosphorylation in C. neoformans, mechanism study for C. neoformans antifungal project, cell-based, single point, dry powder, imaging (AID 743392)
Conditions: C. neoformans H99, pMpk1 Western blot, 2 h; stronger effect = higher value; concentration not given here

Row | SMILES | inhibition
1 | Cc1cccc(OCCn2c(=S)[nH]c3c(F)cccc32)c1 | 4% (inactive)
2 | Fc1cccc(OCCn2c(=S)[nH]c3ccccc32)c1 | 52%
3 | S=c1[nH]c2ccccc2n1CCOc1ccccc1Cl | 56%

Next, values leading:

Row | inhibition | SMILES
4 | 62% | CC(C)c1ccc(OCCn2c(=S)[nH]c3ccccc32)cc1
5 | 53% | Cc1ccc(C(C)C)c(OCCn2c(=S)[nH]c3ccccc32)c1
